Data reported in patent US6737383B1, “Herbicidal oxadiazolidines” (priority 1999, dated 2004).

Experiments:
bedstraw = assay: Test B pre/postemergence bedstraw; format: in vivo, Galium aparine
Method in brief: (§1)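 Herbicidal effect was estimated by eye on a ten-point control scale after plants spent twelve to sixteen days in a greenhouse following soil or foliar treatment. Foliar sprays targeted plants at one to four leaves; all doses were formulated in a non-phytotoxic solvent with surfactant.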

blackgrass = assay: Test B pre/postemergence blackgrass; format: in vivo, Alopecurus myosuroides
Method in brief: as §1

surinam grass = assay: Test B pre/postemergence surinam grass; format: in vivo, Brachiaria decumbens
Method in brief: as §1

corn = assay: Test B pre/postemergence corn; format: in vivo, Zea mays
Method in brief: as §1

crabgrass = assay: Test B pre/postemergence crabgrass; format: in vivo, Digitaria sanguinalis
Method in brief: as §1

giant foxtail = assay: Test B pre/postemergence giant foxtail; format: in vivo, Setaria faberii
Method in brief: as §1

morningglory = assay: Test B pre/postemergence morningglory; format: in vivo, Ipomoea hederacea; conditions: for Plant response rating, Morningglory: scale of 0 to 10 where 0 is no effect and 10 is complete control
Method in brief: as §1

pigweed = assay: Test B pre/postemergence pigweed; format: in vivo, Amaranthus retroflexus; conditions: for Plant response rating, Redroot pigweed: scale of 0 to 10 where 0 is no effect and 10 is complete control
Method in brief: as §1

rape = assay: Test B pre/postemergence rape; format: in vivo, Brassica napus; conditions: for Plant response rating, Rape: scale of 0 to 10 where 0 is no effect and 10 is complete control
Method in brief: as §1

soybean = assay: Test B pre/postemergence soybean; format: in vivo, Glycine max; conditions: for Plant response rating, Soybean: scale of 0 to 10 where 0 is no effect and 10 is complete control
Method in brief: as §1

velvetleaf = assay: Test B pre/postemergence velvetleaf; format: in vivo, Abutilon theophrasti; conditions: for Plant response rating, Velvetleaf: scale of 0 to 10 where 0 is no effect and 10 is complete control
Method in brief: as §1

wheat = assay: Test B pre/postemergence wheat; format: in vivo, Triticum aestivum; conditions: for Plant response rating, Wheat: scale of 0 to 10 where 0 is no effect and 10 is complete control
Method in brief: as §1

wild oat = assay: Test B pre/postemergence wild oat; format: in vivo, Avena fatua; conditions: for Plant response rating, Wild oats: scale of 0 to 10 where 0 is no effect and 10 is complete control
Method in brief: as §1

purple nutsedge = assay: Test B pre/postemergence purple nutsedge; format: in vivo, Cyperus rotundus; conditions: for Plant response rating, Nutsedge: scale of 0 to 10 where 0 is no effect and 10 is complete control
Method in brief: as §1

rice = assay: Test B flood test rice; format: in vivo, Oryza sativa
Method in brief: (§2)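 Flood test on plants grown to the 2-leaf stage; treated plants kept in greenhouse twelve to sixteen days, then visually rated against controls on a 0 (no effect) to 10 (complete control) scale.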

duck salad = assay: Test B flood test duck salad; format: in vivo, Heteranthera limosa
Method in brief: as §2

[1] = Preemergence, Rate 125 g/ha, scale of 0 to 10 where 0 is no effect and 10 is complete control
[2] = Preemergence, Rate 250 g/ha, scale 0 to 10, 0 is no effect, 10 is complete control
[3] = Rate 62 g/ha, Postemergence, scale 0 to 10 (0 no effect, 10 complete control)
[4] = Rate 125 g/ha, Postemergence, scale 0 to 10, 0 is no effect, 10 is complete control
[5] = Postemergence, Rate 250 g/ha, scale 0 to 10
[6] = Postemergence, Rate 500 g/ha, scale of 0 to 10 where 0 is no effect and 10 is complete control
[7] = Preemergence, Rate 62 g/ha, scale of 0 to 10 where 0 is no effect and 10 is complete control
[8] = Preemergence, Rate 500 g/ha, scale 0 to 10, 0 is no effect, 10 is complete control
[9] = Rate 62 g/ha, flood test species, Pre-emergence, visual evaluation after twelve to sixteen days
[10] = Rate 125 g/ha, under heading Pre-emergence, flood test species, visual evaluation after twelve to sixteen days
[11] = Rate 250 g/ha, Pre-emergence (flood test species), scale 0 to 10, 0 is no effect, 10 is complete control
[12] = Rate 500 g/ha, Pre-emergence, flood test species, scale 0 to 10 (0 no effect, 10 complete control)

## CC(C)N(C(=O)n1oc(=O)n(C(C)C(=O)N(C)C)c1=O)c1ccc(F)cc1 (stereo not drawn) [Compound 478]
bedstraw; [1]
  Plant response rating, Bedstraw: 8
bedstraw; [2]
  Bedstraw plant response rating: 8
bedstraw; [3]
  Bedstraw plant response rating: 0
bedstraw; [4]
  Bedstraw plant response rating: 0
blackgrass; [5]
  Blackgrass plant response rating: 8
blackgrass; [6]
  Blackgrass plant response rating: 8
blackgrass; [7]
  Plant response rating, Blackgrass: 4
blackgrass; [1]
  Plant response rating, Blackgrass: 8
blackgrass; [2]
  Blackgrass plant response rating: 10
blackgrass; [8]
  Blackgrass plant response rating: 10
blackgrass; [3]
  Blackgrass plant response rating: 0
blackgrass; [4]
  Blackgrass plant response rating: 2
Surinam grass; Postemergence, Rate 250 g/ha, scale 0 to 10, 0 no effect, 10 complete control
  B. signalgrass plant response rating: 5
Surinam grass; [6]
  B. signalgrass plant response rating: 8
Surinam grass; [7]
  Plant response rating, B. signalgrass: 4
Surinam grass; [1]
  Plant response rating, B. signalgrass: 6
Surinam grass; [2]
  B. signalgrass plant response rating: 9
Surinam grass; [8]
  B. signalgrass plant response rating: 10
Surinam grass; [3]
  B. signalgrass plant response rating: 0
Surinam grass; [4]
  B. signalgrass plant response rating: 0
corn; [5]
  Corn plant response rating: 0
corn; [6]
  Corn plant response rating: 2
corn; [7]
  Plant response rating, Corn: 0
corn; [1]
  Plant response rating, Corn: 0
corn; [2]
  Corn plant response rating: 0
corn; [8]
  Corn plant response rating: 0
corn; [3]
  Corn plant response rating: 0
corn; [4]
  Corn plant response rating: 0
crabgrass; [5]
  Crabgrass plant response rating: 8
crabgrass; [6]
  Crabgrass plant response rating: 9
crabgrass; [7]
  Plant response rating, Crabgrass: 8
crabgrass; [1]
  Plant response rating, Crabgrass: 9
crabgrass; [2]
  Crabgrass plant response rating: 10
crabgrass; [8]
  Crabgrass plant response rating: 10
crabgrass; [3]
  Crabgrass plant response rating: 2
crabgrass; [4]
  Crabgrass plant response rating: 3
Giant foxtail; [5]
  Giant foxtail plant response rating: 8
Giant foxtail; [6]
  Giant foxtail plant response rating: 9
Giant foxtail; [7]
  Plant response rating, Giant foxtail: 9
Giant foxtail; [1]
  Plant response rating, Giant foxtail: 10
Giant foxtail; [2]
  Giant foxtail plant response rating: 10
Giant foxtail; [8]
  Giant foxtail plant response rating: 10
Giant foxtail; [3]
  Giant foxtail plant response rating: 3
Giant foxtail; [4]
  Giant foxtail plant response rating: 6
morningglory; [5]
  Morningglory plant response rating: 7
morningglory; Preemergence, Rate 62 g/ha
  Plant response rating, Morningglory: 0
morningglory; Preemergence, Rate 125 g/ha
  Plant response rating, Morningglory: 0
morningglory; [2]
  Morningglory plant response rating: 1
morningglory; [8]
  Morningglory plant response rating: 2
morningglory; [3]
  Morningglory plant response rating: 3
morningglory; [4]
  Morningglory plant response rating: 3
pigweed; [5]
  Redroot pigweed plant response rating: 3
pigweed; Preemergence, Rate 62 g/ha
  Plant response rating, Redroot pigweed: 8
pigweed; Preemergence, Rate 125 g/ha
  Plant response rating, Redroot pigweed: 8
pigweed; [2]
  Redroot pigweed plant response rating: 9
pigweed; [8]
  Redroot pigweed plant response rating: 10
pigweed; [3]
  Redroot pigweed plant response rating: 1
pigweed; [4]
  Redroot pigweed plant response rating: 2
rape; [5]
  Rape plant response rating: 0
rape; Preemergence, Rate 62 g/ha
  Plant response rating, Rape: 0
rape; Preemergence, Rate 125 g/ha
  Plant response rating, Rape: 1
rape; [2]
  Rape plant response rating: 4
rape; [8]
  Rape plant response rating: 6
rape; [3]
  Rape plant response rating: 0
rape; [4]
  Rape plant response rating: 0
soybean; [5]
  Soybean plant response rating: 2
soybean; Preemergence, Rate 62 g/ha
  Plant response rating, Soybean: 0
soybean; Preemergence, Rate 125 g/ha
  Plant response rating, Soybean: 0
soybean; [2]
  Soybean plant response rating: 0
soybean; [8]
  Soybean plant response rating: 0
soybean; [3]
  Soybean plant response rating: 2
soybean; [4]
  Soybean plant response rating: 2
velvetleaf; [5]
  Velvetleaf plant response rating: 0
velvetleaf; Preemergence, Rate 62 g/ha
  Plant response rating, Velvetleaf: 0
velvetleaf; Preemergence, Rate 125 g/ha
  Plant response rating, Velvetleaf: 1
velvetleaf; [2]
  Velvetleaf plant response rating: 3
velvetleaf; [8]
  Velvetleaf plant response rating: 7
velvetleaf; [3]
  Velvetleaf plant response rating: 0
velvetleaf; [4]
  Velvetleaf plant response rating: 0
wheat; [5]
  Wheat plant response rating: 2
wheat; Preemergence, Rate 62 g/ha
  Plant response rating, Wheat: 0
wheat; Preemergence, Rate 125 g/ha
  Plant response rating, Wheat: 0
wheat; [2]
  Wheat plant response rating: 1
wheat; [8]
  Wheat plant response rating: 8
wheat; [3]
  Wheat plant response rating: 0
wheat; [4]
  Wheat plant response rating: 0
Wild oat; [5]
  Wild oats plant response rating: 0
Wild oat; Preemergence, Rate 62 g/ha
  Plant response rating, Wild oats: 2
Wild oat; Preemergence, Rate 125 g/ha
  Plant response rating, Wild oats: 7
Wild oat; [2]
  Wild oats plant response rating: 9
Wild oat; [8]
  Wild oats plant response rating: 10
Wild oat; [3]
  Wild oats plant response rating: 0
Wild oat; [4]
  Wild oats plant response rating: 0
Purple nutsedge; [5]
  Nutsedge plant response rating: 0
Purple nutsedge; Preemergence, Rate 62 g/ha
  Plant response rating, Nutsedge: 0
Purple nutsedge; Preemergence, Rate 125 g/ha
  Plant response rating, Nutsedge: 0
Purple nutsedge; [2]
  Nutsedge plant response rating: 0
Purple nutsedge; [8]
  Nutsedge plant response rating: 3
Purple nutsedge; [3]
  Nutsedge plant response rating: 0
Purple nutsedge; [4]
  Nutsedge plant response rating: 0
rice; [9]
  Plant response rating, Rice (0 to 10 scale, 0 is no effect, 10 is complete control): 0
rice; [10]
  Rice plant response rating (0 to 10 scale, 0 is no effect, 10 is complete control): 0
rice; [11]
  Rice plant response rating: 0
rice; [12]
  Rice plant response rating: 0
Duck salad; [9]
  Plant response rating, Ducksalad (0 to 10 scale, 0 is no effect, 10 is complete control): 0
Duck salad; [10]
  Ducksalad plant response rating (0 to 10 scale, 0 is no effect, 10 is complete control): 0
Duck salad; [11]
  Ducksalad plant response rating: 0
Duck salad; [12]
  Ducksalad plant response rating: 0
